Experimental data reported in article PMC6609550, “Blockade of the forward Na^+/Ca^2+ exchanger suppresses the growth of glioblastoma cells through Ca^2+‐mediated cell death” (British Journal of Pharmacology, 2019).

Assay: LC-MS analysis of brain homogenate after oral bepridil
Type: in vivo, athymic BALB/c nude mice
Conditions: 50 mg·kg^−1 p.o., brain homogenate collected at 2 hr
Procedure: Athymic BALB/c nude mice were administered bepridil by oral gavage at doses of 50 mg·kg^−1 as described above. Two hours later, mice were killed, and the brain sample was homogenized using the tissue homogenizers (Bertin Instruments, Paris, France) in ice‐cold deionized water at a concentration of 3 ml·g^−1 tissue. Then, methanol with 0.1% formic acid was added to the brain homogenate in a 4:1 proportion (vol/vol) and centrifuged at 18,188× g and 4°C for 10 min to precipitate protein. The supernatant was transferred to a vial to be injected directly into the LC‐MS. The chromatographic system consisted of Shimadzu quaternary pump, vacuum degasser, and autosampler (Shimadzu, LC‐20ADXR, Tokyo, Japan) coupled to https://sciex.com/products/mass-spectrometers/triple-quad-systems, API‐4000 mass spectrometer (SCIEX, Redwood City, CA, USA). HPLC separation was performed on a Thermo Syncronis C8 column 100 × 2.1 mm, 5.0 μm. The mobile phase consisted of methanol (A) and water with 0.1% formic acid (B), measure time was 9 min per run. A flow rate of 0.3 ml·min^−1 was used using a gradient elution of 70% B at 1 min and 5–70% B between 1 and 5 min and maintained for 2 min at 5% B and back to 70% B at 7–7.1 min. […] The CE for bepridil was optimized to 30 V. The precursor‐to‐product ions (Q1 → Q3) selected for bepridil during quantitative optimization were (m/z) 367.1 → 84.3/184.3.

CC(C)COCC(CN(Cc1ccccc1)c1ccccc1)N1CCCC1 (stereo not shown) [Bepridil, N‐benzyl‐N‐(3‐isobutoxy‐2‐pyrrolidin‐1‐yl‐propyl)aniline]
Crossing of the BBB into brain tissue: can cross the BBB and get into brain tissue
